From ChEMBL document CHEMBL1134304, “Discovery of novel p-arylthio cinnamides as antagonists of leukocyte function-associated antigen-1/intercellular adhesion molecule-1 interaction. 4. Structure-activity relationship of substituents on the benzene ring of the cinnamide” (J Med Chem, 2001)
Blank lines part the entries; values can stand above or below the compound they belong to.

Tests used:
[1] = target: T1, Intercellular adhesion molecule (ICAM-1), Integrin alpha-L/beta-2 (Homo sapiens, UniProt P05107+P20701); assay: Inhibition of LFA-1 mediated JY-8 cell adhesion to ICAM-1, range (6-10); assay type: functional, cell-based
Integrin alpha-L [2] = target: T2, Integrin alpha-L (Homo sapiens, UniProt P20701); assay: Inhibition of intercellular adhesion molecule-1 (ICAM-1) binding to recombinant LFA-1, range(6-9)
T2 sequence (P20701 whole entry): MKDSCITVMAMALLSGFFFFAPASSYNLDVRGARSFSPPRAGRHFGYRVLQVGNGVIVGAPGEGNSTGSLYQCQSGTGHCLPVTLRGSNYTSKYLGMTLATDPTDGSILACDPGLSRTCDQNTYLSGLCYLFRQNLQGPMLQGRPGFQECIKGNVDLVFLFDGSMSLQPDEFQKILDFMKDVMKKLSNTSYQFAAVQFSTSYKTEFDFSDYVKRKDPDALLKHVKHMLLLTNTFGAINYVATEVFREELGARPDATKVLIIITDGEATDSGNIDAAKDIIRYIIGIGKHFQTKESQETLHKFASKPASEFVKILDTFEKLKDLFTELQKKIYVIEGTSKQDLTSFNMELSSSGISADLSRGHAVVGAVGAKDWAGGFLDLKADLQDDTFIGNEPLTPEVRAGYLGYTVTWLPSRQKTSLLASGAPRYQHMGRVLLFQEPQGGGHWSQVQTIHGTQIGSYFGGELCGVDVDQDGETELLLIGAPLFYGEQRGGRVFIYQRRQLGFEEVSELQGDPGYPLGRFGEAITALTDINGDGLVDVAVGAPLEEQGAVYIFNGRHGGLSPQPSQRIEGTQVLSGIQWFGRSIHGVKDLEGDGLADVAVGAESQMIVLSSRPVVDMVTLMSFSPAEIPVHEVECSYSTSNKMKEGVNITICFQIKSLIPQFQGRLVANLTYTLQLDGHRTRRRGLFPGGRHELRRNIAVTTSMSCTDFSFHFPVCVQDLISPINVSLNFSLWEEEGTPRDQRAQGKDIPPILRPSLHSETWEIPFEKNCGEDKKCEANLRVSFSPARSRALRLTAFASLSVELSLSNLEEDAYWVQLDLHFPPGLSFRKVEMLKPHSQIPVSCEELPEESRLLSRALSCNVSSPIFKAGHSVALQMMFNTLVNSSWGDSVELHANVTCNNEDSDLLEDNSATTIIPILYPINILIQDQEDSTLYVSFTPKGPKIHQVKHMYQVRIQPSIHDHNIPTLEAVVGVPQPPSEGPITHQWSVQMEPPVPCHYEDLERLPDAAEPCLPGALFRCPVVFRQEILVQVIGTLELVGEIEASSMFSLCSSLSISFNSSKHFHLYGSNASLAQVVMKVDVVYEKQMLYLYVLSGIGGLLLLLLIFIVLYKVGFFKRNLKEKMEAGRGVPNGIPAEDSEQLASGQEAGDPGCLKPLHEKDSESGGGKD

Integrin alpha-L [3] = target: T2, Integrin alpha-L; assay: Inhibition of intercellular adhesion molecule-1 (ICAM-1) binding to recombinant LFA-1, range (2500-11500)
Integrin alpha-L [4] = target: T2, Integrin alpha-L; assay: Inhibition of intercellular adhesion molecule-1 (ICAM-1) binding to recombinant LFA-1, range(50-60)
[5] = target: T1, Intercellular adhesion molecule (ICAM-1), Integrin alpha-L/beta-2; assay: Inhibition of LFA-1 mediated JY-8 cell adhesion to ICAM-1, range (30-170); assay type: functional, cell-based
Integrin alpha-L [6] = target: T2, Integrin alpha-L; assay: Inhibition of intercellular adhesion molecule-1 (ICAM-1) binding to recombinant LFA-1, range (6-12)
[7] = target: T1, Intercellular adhesion molecule (ICAM-1), Integrin alpha-L/beta-2; assay: Inhibition of LFA-1 mediated JY-8 cell adhesion to ICAM-1, range (2-30); assay type: functional, cell-based
Integrin alpha-L [8] = target: T2, Integrin alpha-L
Integrin alpha-L [9] = target: T2, Integrin alpha-L; assay: Inhibition of intercellular adhesion molecule-1 (ICAM-1) binding to recombinant LFA-1, range (3700-3800)
[10] = target: T1, Intercellular adhesion molecule (ICAM-1), Integrin alpha-L/beta-2; assay: Inhibition of LFA-1 mediated JY-8 cell adhesion to ICAM-1, range (100-600); assay type: functional, cell-based
Integrin alpha-L [11] = target: T2, Integrin alpha-L; assay: Inhibition of intercellular adhesion molecule-1 (ICAM-1) binding to recombinant LFA-1, range(100-200)
[12] = target: T1, Intercellular adhesion molecule (ICAM-1), Integrin alpha-L/beta-2; assay: Inhibition of LFA-1 mediated JY-8 cell adhesion to ICAM-1, range (2-9); assay type: functional, cell-based
Integrin alpha-L [13] = target: T2, Integrin alpha-L; assay: Inhibition of intercellular adhesion molecule-1 (ICAM-1) binding to recombinant LFA-1, range (6-9)
Integrin alpha-L [14] = target: T2, Integrin alpha-L; assay: Inhibition of intercellular adhesion molecule-1 (ICAM-1) binding to recombinant LFA-1
Integrin alpha-L [15] = target: T2, Integrin alpha-L; assay: Inhibition of intercellular adhesion molecule-1 (ICAM-1) binding to recombinant LFA-1, range(120-140)
Integrin alpha-L [16] = target: T2, Integrin alpha-L; remark: listed apart in the source
Integrin alpha-L [17] = target: T2, Integrin alpha-L; assay: Inhibition of intercellular adhesion molecule-1 (ICAM-1) binding to recombinant LFA-1, range (4-7)
[18] = target: T1, Intercellular adhesion molecule (ICAM-1), Integrin alpha-L/beta-2; assay: Inhibition of LFA-1 mediated JY-8 cell adhesion to ICAM-1, range (2-2); assay type: functional, cell-based
Integrin alpha-L [19] = target: T2, Integrin alpha-L; remark: listed apart in the source
[20] = target: T1, Intercellular adhesion molecule (ICAM-1), Integrin alpha-L/beta-2
Integrin alpha-L [21] = target: T2, Integrin alpha-L; assay: Inhibition of intercellular adhesion molecule-1 (ICAM-1) binding to recombinant LFA-1, range (5-8)
Integrin alpha-L [22] = target: T2, Integrin alpha-L; assay: Inhibition of intercellular adhesion molecule-1 (ICAM-1) binding to recombinant LFA-1, range(6-13)
[23] = target: T1, Intercellular adhesion molecule (ICAM-1), Integrin alpha-L/beta-2; assay: Inhibition of LFA-1 mediated JY-8 cell adhesion to ICAM-1; assay type: functional, cell-based
Integrin alpha-L [24] = target: T2, Integrin alpha-L; assay: Inhibition of intercellular adhesion molecule-1 (ICAM-1) binding to recombinant LFA-1, range (260-270)
Integrin alpha-L [25] = target: T2, Integrin alpha-L; assay: Inhibition of intercellular adhesion molecule-1 (ICAM-1) binding to recombinant LFA-1, range(100-110)
Integrin alpha-L [26] = target: T2, Integrin alpha-L; assay: Inhibition of intercellular adhesion molecule-1 (ICAM-1) binding to recombinant LFA-1, range (3600-5100)
Integrin alpha-L [27] = target: T2, Integrin alpha-L; assay: Inhibition of intercellular adhesion molecule-1 (ICAM-1) binding to recombinant LFA-1, range(30-60)
[28] = target: T1, Intercellular adhesion molecule (ICAM-1), Integrin alpha-L/beta-2; assay: Inhibition of LFA-1 mediated JY-8 cell adhesion to ICAM-1, range (30-150); assay type: functional, cell-based
Integrin alpha-L [29] = target: T2, Integrin alpha-L; assay: Inhibition of intercellular adhesion molecule-1 (ICAM-1) binding to recombinant LFA-1, range (10400-11300)
Integrin alpha-L [30] = target: T2, Integrin alpha-L; assay: Inhibition of intercellular adhesion molecule-1 (ICAM-1) binding to recombinant LFA-1, range (6-19)
[31] = target: T1, Intercellular adhesion molecule (ICAM-1), Integrin alpha-L/beta-2; assay: Inhibition of LFA-1 mediated JY-8 cell adhesion to ICAM-1, range (3-18); assay type: functional, cell-based
Integrin alpha-L [32] = target: T2, Integrin alpha-L; assay: Inhibition of intercellular adhesion molecule-1 (ICAM-1) binding to recombinant LFA-1, range (6-10)
[33] = target: T1, Intercellular adhesion molecule (ICAM-1), Integrin alpha-L/beta-2; assay: Inhibition of LFA-1 mediated JY-8 cell adhesion to ICAM-1, range (3-10); assay type: functional, cell-based

T1 sequence (P05362 whole entry, one chain of several, further chain): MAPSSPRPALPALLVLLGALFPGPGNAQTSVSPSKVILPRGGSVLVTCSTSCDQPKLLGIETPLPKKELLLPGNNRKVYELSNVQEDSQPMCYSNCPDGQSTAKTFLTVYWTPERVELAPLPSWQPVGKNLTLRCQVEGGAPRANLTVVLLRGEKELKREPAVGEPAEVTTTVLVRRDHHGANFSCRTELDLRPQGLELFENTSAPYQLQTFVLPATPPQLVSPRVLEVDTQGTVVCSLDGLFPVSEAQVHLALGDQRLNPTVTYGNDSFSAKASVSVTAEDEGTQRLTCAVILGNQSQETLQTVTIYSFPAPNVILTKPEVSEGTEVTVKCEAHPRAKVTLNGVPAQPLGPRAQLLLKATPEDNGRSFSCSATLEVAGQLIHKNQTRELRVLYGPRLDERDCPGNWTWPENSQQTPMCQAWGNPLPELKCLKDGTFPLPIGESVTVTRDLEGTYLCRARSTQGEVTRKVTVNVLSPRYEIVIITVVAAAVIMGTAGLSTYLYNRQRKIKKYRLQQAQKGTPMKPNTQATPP
T1 sequence (P05107 whole entry, one chain of several): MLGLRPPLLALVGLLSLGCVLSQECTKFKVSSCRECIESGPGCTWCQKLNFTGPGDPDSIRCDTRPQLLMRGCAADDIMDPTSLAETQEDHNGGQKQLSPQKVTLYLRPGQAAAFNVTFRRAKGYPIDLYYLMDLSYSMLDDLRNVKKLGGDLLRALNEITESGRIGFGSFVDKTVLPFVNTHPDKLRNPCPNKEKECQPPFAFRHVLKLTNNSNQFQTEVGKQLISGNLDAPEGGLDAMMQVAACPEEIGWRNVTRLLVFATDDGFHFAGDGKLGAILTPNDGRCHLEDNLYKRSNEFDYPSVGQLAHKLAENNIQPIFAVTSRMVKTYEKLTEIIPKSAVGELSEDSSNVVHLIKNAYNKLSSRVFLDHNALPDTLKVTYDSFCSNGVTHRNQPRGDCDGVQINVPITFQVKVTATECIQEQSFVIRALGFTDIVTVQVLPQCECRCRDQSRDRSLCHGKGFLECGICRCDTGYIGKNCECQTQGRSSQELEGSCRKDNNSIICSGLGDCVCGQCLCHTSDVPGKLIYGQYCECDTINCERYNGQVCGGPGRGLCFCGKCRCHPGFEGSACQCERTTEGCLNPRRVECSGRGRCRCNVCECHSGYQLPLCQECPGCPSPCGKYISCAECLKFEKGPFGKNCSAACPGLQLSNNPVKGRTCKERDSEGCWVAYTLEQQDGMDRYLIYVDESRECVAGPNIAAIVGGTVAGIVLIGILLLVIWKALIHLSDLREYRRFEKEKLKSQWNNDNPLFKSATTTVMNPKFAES

SMILES: CC(=O)N1CCN(C(=O)/C=C/c2ccc(Sc3ccc4c(c3)OCCO4)c(Cl)c2Cl)CC1
IC50 [1]: 8 nM
IC50 (Integrin alpha-L [2]): 7 nM

SMILES: COc1ccccc1Sc1ccc(/C=C/C(=O)N2CCN(C(C)=O)CC2)c(F)c1
IC50 (Integrin alpha-L [3]): 3900 nM

SMILES: CC(=O)N1CCN(C(=O)/C=C/c2ccc(Sc3ccc4c(c3)OCCO4)c(C(F)(F)F)c2)CC1
IC50 (Integrin alpha-L [4]): 55 nM
IC50 [5]: 60 nM

SMILES: O=C(/C=C/c1ccc(Sc2ccc3c(c2)OCCO3)c(C(F)(F)F)c1)N1CCOCC1
IC50 (Integrin alpha-L [8]): 30 nM

SMILES: CC(=O)N1CCN(C(=O)/C=C/c2ccc(Sc3cccc(Cl)c3Cl)c(S(=O)(=O)N(C)C)c2)CC1
IC50 (Integrin alpha-L [9]): 3750 nM

SMILES: CC(=O)N1CCN(C(=O)/C=C/c2ccc(Sc3ccc(Cl)cc3Cl)c(Cl)c2)CC1
IC50 [10]: 130 nM
IC50 (Integrin alpha-L [11]): 140 nM

SMILES: O=C(O)C1CCN(C(=O)/C=C/c2ccc(Sc3ccc4c(c3)OCCO4)c(Cl)c2Cl)CC1
IC50 [12]: 6 nM
IC50 (Integrin alpha-L [13]): 7 nM

SMILES: COc1ccccc1Sc1cc(C)c(/C=C/C(=O)N2CCC(C(=O)O)CC2)cc1[N+](=O)[O-]
IC50 (Integrin alpha-L [14]): > 20000 nM

SMILES: CC(=O)N1CCN(C(=O)/C=C/c2ccc(Sc3ccc4c(c3)OCCO4)c([N+](=O)[O-])c2)CC1
IC50 (Integrin alpha-L [15]): 139 nM

SMILES: CC(C)c1ccccc1SC1=CC=C(/C=C/C(=O)N2CCC(C(=O)O)CC2)C(F)C1F (centres undefined)
IC50 (Integrin alpha-L [16]): 115 nM

SMILES: O=C(O)C1CCN(C(=O)/C=C/c2ccc(Sc3ccc4c(c3)OCCO4)c(Cl)c2C(F)(F)F)CC1
IC50 (Integrin alpha-L [17]): 5 nM
IC50 [18]: 2 nM

SMILES: COc1ccccc1Sc1ccc(/C=C/C(=O)N2CCC(C(=O)O)CC2)c(C(F)(F)F)c1C(F)(F)F
IC50 (Integrin alpha-L [19]): 5 nM
IC50 [20]: 0.1 nM

SMILES: COc1ccccc1Sc1ccc(/C=C/C(=O)N2CCC(C(=O)O)CC2)c(C(F)(F)F)c1
IC50 (Integrin alpha-L [24]): 265 nM

SMILES: CC(=O)N1CCN(C(=O)/C=C/c2ccc(Sc3cccc(Cl)c3Cl)c([N+](=O)[O-])c2)CC1
IC50 (Integrin alpha-L [25]): 105 nM

SMILES: O=C(O)C1CCN(C(=O)/C=C/c2cc(Cl)c(Sc3ccc4c(c3)OCCO4)c(C(F)(F)F)c2)CC1
IC50 (Integrin alpha-L [14]): > 20000 nM

SMILES: CC(=O)N1CCN(C(=O)/C=C/c2ccc(Sc3ccc(Cl)cc3Cl)cc2)CC1
IC50 (Integrin alpha-L [26]): 4300 nM

SMILES: CC(=O)N1CCN(C(=O)/C=C/c2ccc(Sc3ccc4c(c3)OCCO4)c(Cl)c2)CC1
IC50 (Integrin alpha-L [27]): 40 nM
IC50 [28]: 80 nM

SMILES: COc1ccccc1Sc1ccc(/C=C/C(=O)N2CCN(C(C)=O)CC2)cc1OC
IC50 (Integrin alpha-L [29]): 10700 nM

More lines, now with the values ahead:

IC50 (Integrin alpha-L [6]): 8 nM
IC50 [7]: 8 nM
SMILES: COc1ccccc1Sc1ccc(/C=C/C(=O)N2CCC(C(=O)O)CC2)c(Cl)c1Cl

IC50 (Integrin alpha-L [14]): 9100 nM
SMILES: O=C(/C=C/c1ccc(Sc2cccc(Cl)c2Cl)cc1)N1CCOCC1

IC50 (Integrin alpha-L [14]): > 20000 nM
SMILES: COc1ccccc1Sc1cc(C)c(/C=C/C(=O)N2CCC(C(=O)O)CC2)cc1Cl

IC50 (Integrin alpha-L [14]): > 20000 nM
SMILES: COc1ccccc1Sc1ccc(/C=C/C(=O)N2CCC(C(=O)O)CC2)c(C)c1

IC50 (Integrin alpha-L [21]): 6 nM
IC50 [12]: 4 nM
SMILES: COc1ccccc1Sc1ccc(/C=C/C(=O)N2CCC(C(=O)O)CC2)c(C(F)(F)F)c1Cl

IC50 (Integrin alpha-L [14]): > 20000 nM
SMILES: COc1ccccc1Sc1cc(Cl)c(/C=C/C(=O)N2CCC(C(=O)O)CC2)cc1Cl

IC50 (Integrin alpha-L [22]): 10 nM
IC50 [23]: 6 nM
SMILES: COc1ccccc1Sc1ccc(/C=C/C(=O)N2CCOCC2)c(Cl)c1Cl

IC50 (Integrin alpha-L [30]): 10 nM
IC50 [31]: 6 nM
SMILES: CC(C)c1ccccc1Sc1ccc(/C=C/C(=O)N2CCC(C(=O)O)CC2)c(Cl)c1Cl

IC50 (Integrin alpha-L [32]): 8 nM
IC50 [33]: 5 nM
SMILES: COc1ccccc1Sc1ccc(/C=C/C(=O)N2CCOCC2)c(C(F)(F)F)c1Cl
